These are literature values, as cited in US20080089861A1, “Combination therapy for treatment of demyelinating conditions” (priority 2006, published 2008).

“Also recorded” adds a separate entry of the source.

The conditions of the series: human.

Consider `CC12CC3CC(C)(C1)CC(N)(C3)C2` [Memantine, 1-amino-3,5-dimethyladamantane], for which the “Dose Dependent Tox” value was “Dose escalation; also recorded: hallucination”.
